This passage reports IC50 results from patent US20070112000A1, “Chemical compounds” (AstraZeneca R&D Alderley, priority 2003, published 2007).

For this assay, the target named is T1, human 11βHSD1 enzyme (Homo sapiens, UniProt P28845).
T1 construct: stably transfected with a construct containing fill-length human 11βHSD1 enzyme (in pCMVHyg); expressed in transfected cells; host or cells: HeLa cells (human cervical carcinoma) stably carrying the GRE4-β-galactosidase reporter and 11βHSD1 in pCMVHyg
T1 sequence (P28845 whole entry): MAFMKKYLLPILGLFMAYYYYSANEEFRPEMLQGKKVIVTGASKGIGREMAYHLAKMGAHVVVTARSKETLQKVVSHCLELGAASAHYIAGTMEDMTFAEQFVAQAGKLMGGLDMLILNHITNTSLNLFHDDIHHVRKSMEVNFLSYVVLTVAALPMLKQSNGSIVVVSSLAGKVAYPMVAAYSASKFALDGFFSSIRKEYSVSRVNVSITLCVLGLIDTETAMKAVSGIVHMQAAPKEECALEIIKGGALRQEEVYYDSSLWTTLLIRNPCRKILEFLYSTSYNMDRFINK
Nature of the assay: HeLa GRE4-βGal/11βHSD1 cell reporter assay (cortisone to cortisol conversion, β-galactosidase readout). It is filed as cell-based. The note with it: HeLa GRE4-βGal/11βHSD1 cells, cortisone 1 μM, overnight incubation. An excerpt: HeLa cells (human cervical carcinoma derived cells) were stably transfected with a construct containing four copies of the glucocorticoid response element (GRE) linked to a beta-galactosidase reporter gene (3 kb lac Z gene derived from pSV-B-galactosidase). These cells were then further stably transfected with a construct containing fill-length human 11βHSD1 enzyme (in pCMVHyg) to create GRE4-βGal/11βHSD1 cells. The principal of the assay is as follows. Cortisone is freely taken up by the cells and is converted to cortisol by 11βHSD1 oxo-reductase activity and cortisol (but not cortisone) binds to and activates the glucocorticoid receptor. Activated glucocorticoid receptor then binds to the GRE and initiates transcription and translation of β-galactosidase. Enzyme activity can then be assayed with high sensitivity by colourimetric assay.
Cells were routinely cultured in DMEM (Invitrogen, Paisley, Renfrewshire, UK) containing 10% foetal calf serum (LabTech), 1% glutamine (Invitrogen), 1% penicillin & streptomycin (Invitrogen), 0.5 mg/ml G418 (Invitrogen) & 0.5 mg/ml hygromycin (Boehringer). Assay media was phenol red free-DMEM containing 1% glutamine, 1% penicillin & streptomycin.
Compounds (1 mM) to be tested were dissolved in dimethyl sulphoxide (DMSO) and serially diluted into assay media containing […]. […]
A cocktail (25 μl) consisting of 10× Z-buffer (600 mM Na2HPO4, 400 mM NaH2PO4.2H2O, 100 mM KCl, 10 mM MgSO4.7H2O, 500 mM, β-mercaptoethanol, pH 7.0), SDS (0.2%), chlorophenol red-β-D-galactopyranoside (5 mM, Roche Diagnostics) was added per well and plates incubated at 37° C. for 34 hours. β-Galactosidase activity was indicated by a yellow to red colour change (absorbance at 570 nm) measured using a Tecan Spectrafluor Ultra.
The calculation of median inhibitory concentration (IC50) values for the inhibitors was performed using Origin 6.0 (Microcal Software, Northampton Mass. USA). Dose response curves for each inhibitor were plotted as OD units at each inhibitor concentration with relation to a maximum signal (cortisone, no compound) and IC50 values calculated. […]
In general terms: A reporter such as luciferase makes a cellular process visible.
Turning to `CC(C)S(=O)(=O)N1CCCC(C(=O)c2ccc(F)cc2)C1` (stereo not drawn) [Example 13], the half-maximal inhibitory concentration (IC50) (in general, the concentration that gives 50% inhibition) came out at 10 nM.

In turn, `O=C(c1ccc(F)cc1)C1CCCN(C(=O)Cc2ccc(F)cc2)C1` (stereo not drawn) [Example 17] gave an IC50 of 83 nM.

`O=C(c1ccc(F)cc1)C1CCCN(C(=O)c2ccc(Cl)s2)C1` (stereo not drawn) [Example 18] displayed an IC50 of 206 nM.
